Reference: US20060293307A1, “Oxazolidinone derivatives as antimicrobials” (priority 2002, published 2006)
In brackets after ≈: the same amount, converted by molar mass. Read-outs that look alike come from different tables or passages of the source.

Assays:
H. influenzae R = test: MIC against Haemophilus strains; format: cell-based
H. influenzae ATCC 49247 = test: MIC against Haemophilus strains; format: cell-based
H. influenzae 1745 = test: MIC against Haemophilus strains; format: cell-based
H. influenzae P318 = test: MIC against Haemophilus strains; format: cell-based
H. influenzae 474 = test: MIC against Haemophilus strains; format: cell-based
E. faecalis 5B (VRE) = test: MIC, agar incorporation method; format: cell-based
M. tuberculosis PC 4782 = test: MIC against M. tuberculosis strains, agar dilution; format: cell-based, Mycobacterium tuberculosis; details: Mycobacterium tuberculosis, PC4782, S. No. 21 Mt-, Middle Brook 7H10 + OADC, 37° C., 14-21 days, read-out: MIC
M. tuberculosis M-168 = test: MIC against M. tuberculosis strains, agar dilution; format: cell-based, Mycobacterium tuberculosis; details: Mycobacterium tuberculosis, M168, S. No. 09 Mt-, Middle Brook 7H10 + OADC, 37° C., 14-21 days, read-out: MIC
M. tuberculosis PC [1] = test: MIC against M. tuberculosis strains, agar dilution; format: cell-based, Mycobacterium tuberculosis; details: Mycobacterium tuberculosis, S. No. 19 Mt-, Middle Brook 7H10 + OADC, 37° C., 14-21 days, read-out: MIC
M. tuberculosis SGPGI [2] = test: MIC against M. tuberculosis strains, agar dilution; format: cell-based, Mycobacterium tuberculosis; details: Mycobacterium tuberculosis, S. No. 05 Mt-, Middle Brook 7H10 + OADC, 37° C., 14-21 days, read-out: MIC
M. tuberculosis 50 = test: MIC against M. tuberculosis strains, agar dilution; format: cell-based, Mycobacterium tuberculosis; details: Mycobacterium tuberculosis, S. No. 12 Mt-, Middle Brook 7H10 + OADC, 37° C., 14-21 days, read-out: MIC
M. tuberculosis M-66 = test: MIC against M. tuberculosis strains, agar dilution; format: cell-based, Mycobacterium tuberculosis; details: Mycobacterium tuberculosis, M66, S. No. 08 Mt-, Middle Brook 7H10 + OADC, 37° C., 14-21 days, read-out: MIC
M. tuberculosis V-3093 = test: MIC against M. tuberculosis strains, agar dilution; format: cell-based, Mycobacterium tuberculosis; details: Mycobacterium tuberculosis, V3093, S. No. 14 Mt-, Middle Brook 7H10 + OADC, 37° C., 14-21 days, read-out: MIC
M. tuberculosis ATCC = test: MIC against M. tuberculosis strains, agar dilution; format: cell-based, Mycobacterium tuberculosis; details: Mycobacterium tuberculosis, S. No. 01.Mt-, Middle Brook 7H10 + OADC, 37° C., 14-21 days, read-out: MIC
M. tuberculosis M-149 = test: MIC against M. tuberculosis strains, agar dilution; format: cell-based, Mycobacterium tuberculosis; details: Mycobacterium tuberculosis, M149, S. No. 15 Mt-, Middle Brook 7H10 + OADC, 37° C., 14-21 days, read-out: MIC
M. tuberculosis PC [3] = test: MIC against M. tuberculosis strains, agar dilution; format: cell-based, Mycobacterium tuberculosis; details: Mycobacterium tuberculosis, S. No. 20 Mt-, Middle Brook 7H10 + OADC, 37° C., 14-21 days, read-out: MIC
M. tuberculosis SGPGI [4] = test: MIC against M. tuberculosis strains, agar dilution; format: cell-based, Mycobacterium tuberculosis; details: Mycobacterium tuberculosis, S. No. 07 Mt-, Middle Brook 7H10 + OADC, 37° C., 14-21 days, read-out: MIC
M. tuberculosis SGPGI [5] = test: MIC against M. tuberculosis strains, agar dilution; format: cell-based, Mycobacterium tuberculosis; details: Mycobacterium tuberculosis, S. No. 06 Mt-, Middle Brook 7H10 + OADC, 37° C., 14-21 days, read-out: MIC
[6] = s. No. 2, H. influenzae ATCC 49247
[7] = S. No. 19, E. faecalis 5B (VRE)
[8] = Haemophilus influenzae, s. No. 4, H. influenzae R, read-out: MIC
[9] = Haemophilus influenzae, ATCC49247, s. No. 2, H. influenzae ATCC 49247, read-out: MIC
[10] = Haemophilus influenzae, s. No. 9, H. influenzae 1745, read-out: MIC
[11] = Haemophilus influenzae, s. No. 10, H. influenzae P318, read-out: MIC
[12] = Haemophilus influenzae, s. No. 11, H. influenzae 474, read-out: MIC

Molecule	MIC (H. influenzae R; s. No. 4, H. influenzae R) [mg/L]	MIC (H. influenzae ATCC 49247; [6]) [mg/L]	MIC (H. influenzae 1745; s. No. 9, H. influenzae 1745) [mg/L]	MIC (H. influenzae P318; s. No. 10, H. influenzae P318) [mg/L]	MIC (H. influenzae 474; s. No. 11, H. influenzae 474) [mg/L]	MIC (E. faecalis 5B (VRE); [7]) [mg/L]	MIC (E. faecalis 5B (VRE); Enterococcus faecalis, VRE) [mg/L]	MIC (H. influenzae R; [8]) [mg/L]	MIC (H. influenzae ATCC 49247; [9]) [mg/L]	MIC (H. influenzae 1745; [10]) [mg/L]	MIC (H. influenzae P318; [11]) [mg/L]	MIC (H. influenzae 474; [12]) [mg/L]	further results
CC(=O)NC[C@H]1CN(c2ccc(N3CCN(c4ccc([N+](=O)[O-])s4)CC3)cc2)C(=O)O1 [Compound No. 6, (S)—N-[[3-[4-[N-1-(5-nitro-2-thienyl)piperazinyl]-phenyl]-2-oxo-5-oxazolidinyl]-methyl]-acetamide]	16 (≈ 35.9 µM)	16 (≈ 35.9 µM)	16 (≈ 35.9 µM)	16 (≈ 35.9 µM)	16 (≈ 35.9 µM)								
CC(=O)NC[C@H]1CN(c2ccc(N3CCN(c4cc(C(OC(C)=O)OC(C)=O)sc4[N+](=O)[O-])CC3)c(F)c2)C(=O)O1 [Compound No. 5, (S)—N-[[3-[3-Fluoro-4-[4-{3-thienyl(2-nitro)-5-acetyloxy}methylacetate]-1-piperazinyl]phenyl]-2-oxo-5-oxazolidinyl]acetamide]	16 (≈ 27 µM)	>16	16 (≈ 27 µM)	>16	>16	1 (≈ 1.68 µM)							
O=C(NC[C@H]1CN(c2ccc(N3CCN(c4ccc([N+](=O)[O-])s4)CC3)c(F)c2)C(=O)O1)C(F)F [Compound No. 8, (S)—N-[[3-[3-Fluoro-4-[4-(5-nitro-2-thienyl)-1-piperazinyl]phenyl]-2-oxo-5-oxazolidinyl]methyl]difluoroacetamide]							2 (≈ 4 µM)						MIC (H. influenzae R; Haemophilus influenzae): > 16 mg/L; MIC (H. influenzae ATCC 49247; Haemophilus influenzae, ATCC49247): > 16 mg/L; MIC (H. influenzae 1745; Haemophilus influenzae, 1745): 16 mg/L (≈ 32 µM); MIC (H. influenzae P318; Haemophilus influenzae, P318): > 16 mg/L; MIC (H. influenzae 474; Haemophilus influenzae, 474): > 16 mg/L
CC(=O)NC[C@H]1CN(c2ccc(N3CCOCC3)c(F)c2)C(=O)O1 [Linezolid, reference compound]							2 (≈ 5.93 µM)	16 (≈ 47.4 µM)	8 (≈ 23.7 µM)	16 (≈ 47.4 µM)	16 (≈ 47.4 µM)	16 (≈ 47.4 µM)	MIC (M. tuberculosis PC 4782): 1 mg/L; MIC (M. tuberculosis M-168): 4 mg/L; MIC (M. tuberculosis PC [1]): 0.5 mg/L; MIC (M. tuberculosis SGPGI [2]): 4 mg/L; MIC (M. tuberculosis 50): > 32 mg/L; MIC (M. tuberculosis M-66): > 32 mg/L; MIC (M. tuberculosis V-3093): 1 mg/L; MIC (M. tuberculosis ATCC): 1 mg/L; MIC (M. tuberculosis M-149): 32 mg/L; MIC (M. tuberculosis PC [3]): 32 mg/L; MIC (M. tuberculosis SGPGI [4]): > 32 mg/L; MIC (M. tuberculosis SGPGI [5]): > 32 mg/L
CC(=O)NC[C@H]1CN(c2ccc(N3CCN(c4ccc(C=O)o4)CC3)c(F)c2)C(=O)O1 [Compound No. 3, (S)—N-[[3-[3-Fluoro-4-[4-(5-formyl-2-furyl)-1-piperazinyl]phenyl]-2-oxo-5-oxazolidinyl]methyl]acetamide]								8 (≈ 18.6 µM)	4 (≈ 9.29 µM)	8 (≈ 18.6 µM)	8 (≈ 18.6 µM)	4 (≈ 9.29 µM)	
CC(=O)NC[C@H]1CN(c2ccc(N3CCN(c4ccc(C=O)s4)CC3)c(F)c2)C(=O)O1 [Compound No. 2, (S)—N-[[3-[3-Fluoro-4-[4-(5-formyl-2-thienyl)-1-piperazinyl]phenyl]-2-oxo-5-oxazolidinyl]methyl]acetamide]								> 16	16 (≈ 35.8 µM)	> 16	> 16	16 (≈ 35.8 µM)	MIC (E. faecalis 5B (VRE); Enterococcus faecalis, S. No. 19, E. faecalis 5B (VRE), read-out: MIC): 0.5 mg/L (≈ 1.12 µM)
O=C(NC[C@H]1CN(c2ccc(N3CCN(c4ccc([N+](=O)[O-])s4)CC3)c(F)c2)C(=O)O1)C(Cl)Cl [compound 9, (S)—N-[[3-[-3-Fluoro-4-[N-1-(5-nitro-2-thienyl)-piperazinyl]phenyl] -2-oxo-5-oxazolidinyl]methyl]dichloroacetamide]	>16	>16	>16	>16	>16	0.5 (≈ 0.939 µM)							
(S)—N-[[3-[-3-Fluoro-4-[(5-nitro-2-thienyl)-3-methyl-1-piperazinyl]phenyl]-2-oxo-5-oxazolidinyl]methyl]acetamide [Compound No. 10]	>16	>16	>16	>16	>16	1							
C[C@H](Cl)C(=O)NCC1CN(c2ccc(N3CCN(c4ccc([N+](=O)[O-])s4)CC3)c(F)c2)C(=O)O1 (stereo partly drawn) [Compound No. 7, (S)—N-[[3-[3-Fluoro-4-[N-1-{4-(5-nitro-2-thienyl)piperazinyl}]-phenyl]-2-oxo-5-oxazolidinyl]-methyl]-2-chloro-propionamide]	>16	>16	>16	>16	>16	>8							
CN[C@H](CC(C)C)C(=O)N[C@H]1C(=O)N[C@@H](CC(N)=O)C(=O)N[C@H]2C(=O)N[C@H]3C(=O)N[C@H](C(=O)N[C@H](C(=O)O)c4cc(O)cc(O)c4-c4cc3ccc4O)[C@H](O)c3ccc(c(Cl)c3)Oc3cc2cc(c3O[C@@H]2O[C@H](CO)[C@@H](O)[C@H](O)[C@H]2O[C@H]2C[C@](C)(N)[C@H](O)[C@H](C)O2)Oc2ccc(cc2Cl)[C@H]1O [Vancomycin, reference compound]							> 16						
